The NIST ThermoML archive (doi:10.1016/j.jct.2015.10.011)
Numbers after ± are expanded uncertainties.

Conditions: 298.15 K; 101.33 kPa; Liquid; Vibrating tube method

mass density: 655.19 ± 0.83 kg/m3
Structure (SMILES): CCCCCC [hexane]
